Laboratory results: ChEMBL document CHEMBL1201862, “PubChem BioAssay data set” (2004)
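Exposure lasted 48 hours, with cells grown in 96-well plates and compounds tested at five concentrations. Here, GI50 denotes the concentration required for 50% inhibition of growth.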 The source made the active and inactive calls. Cut-off read from the data, not from the text of the source: active = GI50 up to about 1.1 µM and inactive = higher.

Legend:
Assay in all cases: growth of human tumour cells (NCI), 48 h
[1] = test system: DLD-1
[2] = test system: DMS-114
[3] = test system: HOP-18
[4] = test system: KM-20L2
[5] = test system: LXFL 529
[6] = test system: M19-MEL
[7] = test system: SNB-78
[8] = test system: XF498
[9] = test system: RXF 631

Row | Structure (SMILES) | GI50 [1] | GI50 [2] | GI50 [3] | GI50 [4] | GI50 [5] | GI50 [6] | GI50 [7] | GI50 [8] | GI50 [9]
1 | O=CC1CCCc2ccccc21 (stereo unspecified) | > 43.1 µM (inactive) | > 47.3 µM (inactive) | > 100 µM (inactive) | > 100 µM (inactive) | > 100 µM (inactive) | > 100 µM (inactive) | > 100 µM (inactive) | > 100 µM (inactive) | –
2 | CCCCCCCCCOC(=S)NC | 16.6 µM (inactive) | – | 19.6 µM (inactive) | 18 µM (inactive) | 17.8 µM (inactive) | 23.4 µM (inactive) | – | 18.2 µM (inactive) | 21 µM (inactive)
3 | CN1C(c2ccccc2)CC(C)(O)CC1c1ccccc1 (stereo unspecified) | > 100 µM (inactive) | > 100 µM (inactive) | – | > 100 µM (inactive) | > 100 µM (inactive) | > 100 µM (inactive) | > 100 µM (inactive) | – | > 100 µM (inactive)
4 | CCCCNC(=S)OCCC(C)CCCC(C)C (stereo unspecified) | > 100 µM (inactive) | > 100 µM (inactive) | > 100 µM (inactive) | > 100 µM (inactive) | > 100 µM (inactive) | > 100 µM (inactive) | > 100 µM (inactive) | > 100 µM (inactive) | –
5 | CSc1cccc(-n2c3nc(=O)n(C)c(=O)c-3nc3ccccc32)c1 | 14 µM (inactive) | 3.27 µM (inactive) | 13.2 µM (inactive) | 3.54 µM (inactive) | 13.3 µM (inactive) | 2.07 µM (inactive) | 19.4 µM (inactive) | 3.51 µM (inactive) | –
6 | CCCCCC(=O)OC[n+]1ccc2c(C)c3[nH]c4ccc(OC)cc4c3c(C)c2c1 | 0.137 µM (active) | 0.628 µM (active) | – | > 100 µM (inactive) | 0.366 µM (active) | – | 0.449 µM (active) | – | 0.429 µM (active)
7 | O=[N+]([O-])c1cccc(/C=N\NS(=O)(=O)c2ccc(Cl)cc2)c1O | 55.5 µM (inactive) | – | 37.1 µM (inactive) | > 100 µM (inactive) | 83.6 µM (inactive) | > 100 µM (inactive) | > 100 µM (inactive) | – | > 100 µM (inactive)
8 | Cc1c(CNc2ccc(Cl)c(C(=O)NC(CC(=O)O)C(=O)O)c2)ccc2nc(N)nc(N)c12 (stereo unspecified) | 0.0631 µM (active) | 0.038 µM (active) | > 54.8 µM (inactive) | 0.665 µM (active) | – | 13.7 µM (inactive) | > 100 µM (inactive) | > 100 µM (inactive) | –
9 | Cc1cc(Cl)ccc1NC(=O)C(=O)Cc1nc2ccc(C(=O)c3ccccc3)cc2nc1O | > 100 µM (inactive) | 33.4 µM (inactive) | > 100 µM (inactive) | > 100 µM (inactive) | 48.6 µM (inactive) | > 100 µM (inactive) | – | > 100 µM (inactive) | –
10 | N=C(N)NCCCC(Nc1c2ccccc2[n+]([O-])c2ccccc12)C(=O)O (stereo unspecified) | 28.4 µM (inactive) | 23.6 µM (inactive) | 33.3 µM (inactive) | 95.7 µM (inactive) | 22.5 µM (inactive) | 44.7 µM (inactive) | – | – | > 100 µM (inactive)
11 | CC(C)S(=O)(=O)ON1C(=O)c2ccc(N(C)C)cc2C1=O | – | – | 13.5 µM (inactive) | 20.4 µM (inactive) | 9.91 µM (inactive) | – | 31.3 µM (inactive) | 17.7 µM (inactive) | 13.2 µM (inactive)
12 | CCN(CC)CC(=O)NC1c2ccccc2Oc2ccccc21 | > 100 µM (inactive) | > 100 µM (inactive) | – | > 100 µM (inactive) | > 100 µM (inactive) | > 100 µM (inactive) | > 100 µM (inactive) | > 100 µM (inactive) | –
13 | CN1CCN(c2ccc3[nH]c(-c4ccc5[nH]c(-c6ccc(O)cc6)nc5c4)nc3c2)CC1 | 178 µM (inactive) | 38.5 µM (inactive) | 209 µM (inactive) | 158 µM (inactive) | – | 18.1 µM (inactive) | 265 µM (inactive) | 34.4 µM (inactive) | –
14 | O=C(c1ccccc1)[C@H]1Nc2cnccc2C2c3ccccc3CC21 (stereo partly specified) | 7.01 µM (inactive) | 10 µM (inactive) | 5.6 µM (inactive) | 21.2 µM (inactive) | 4.38 µM (inactive) | 8.3 µM (inactive) | 15.5 µM (inactive) | 23.7 µM (inactive) | 19.9 µM (inactive)
